Tests used:
HT-29 cells [1] = settings: Aza treatment; inhibition parallels induction of IFN responsive genes; cited from earlier work
HCT116 cells = experiment: microarray differential expression, HCT116 cells treated with 500 nM Aza; type: cell-based, human; settings: vs untreated, log base 2, negative = upregulation
Protocol: HT29 cells were derived from a Grade II adenocarcinoma of the colon obtained from a person. HCT116 cells are a subpopulation of malignant cells isolated from a primary cell culture of a single human colonic carcinoma (Brattain et al. (1981) Cancer Res 41:1751-6). HMEC cells are a primary human epithelial cell line derived from the breast tissue of a normal donor. HT29 and HCT116 colorectal carcinoma cells (American Type Culture Collection, Manassas Va.) were cultured in McCoy's medium supplemented with 10% fetal bovine serum (Invitrogen) at 37° C. and 5% CO2. Treated cells were exposed to 500 nM 5-aza-2-deoxycytidine (Aza; Sigma-Aldrich) 24 hours after passage in complete culture medium. Control cultures were treated in parallel with phosphate buffered saline vehicle. After twenty-four hours, culture medium was replaced with drug-free medium. Control and Aza-treated cells were subcultured at equal densities at 1 and 5 days after the initial treatment, and proliferation was measured at the subsequent time point using a Coulter counter (Beckman Coulter, Fullerton Calif.). Cells were harvested 5 days after the initial treatment.
Cells were harvested and lysed in 1 ml of TRIZOL reagent (5×10^6 cells/ml; Invitrogen). The lysates were vortexed thoroughly and incubated at room temperature for 2-3 minutes and extracted with 0.5 ml chloroform. The extract was mixed, incubated at room temperature for 5 minutes, and centrifuged at 16,000× g for 15 minutes at 4° C. The aqueous layer was collected, and an equal volume of isopropanol was added. Samples were mixed, incubated at room temperature for 10 minutes, and centrifuged at 16,000× g for 20 minutes at 4° C. The supernatant was removed, and the RNA pellet was washed with 1 ml of 70% ethanol, centrifuged at 16,000× g at 4° C., and resuspended in RNAse-free water. The concentration of the RNA was determined by measuring the optical density at 260 nm.
Poly(A) RNA was prepared using an OLIGOTEX mRNA kit (Qiagen) with the following modifications: OLIGOTEX beads were washed in tubes instead of on spin columns, resuspended in elution buffer, and then loaded onto spin columns to recover mRNA. To obtain maximum yield, the mRNA was eluted twice.
Each poly(A) RNA sample was reverse transcribed using MMLV reverse-transcriptase, 0.05 pg/μl oligo-d(T) primer (21mer), 1× first strand buffer, 0.03 units/ul RNAse inhibitor, 500 uM dAT?, 500 uM dGTP, 500 uM dTTP, 40 uM dCTP, and 40 uM either dCTP-Cy3 or dCTP-Cy5 (APB). The reverse transcription reaction was performed in a […] volume containing 200 ng poly(A) RNA using the GEMBRIGHT kit (Incyte Genomics). Specific control poly(A) RNAs (YCFRO6, YCFR45, YCFR67, YCFR85, YCFR43, YCFR22, YCFR23, YCFR25, YCFR44, YCFR26) were synthesized by in vitro transcription from non-coding yeast genomic DNA (W. Lei, unpublished). As quantitative controls, control mRNAs (YCFRO6, YCFR45, YCFR67, and YCFR85) at 0.002 ng, 0.02 ng, 0.2 ng, and 2 ng were diluted into reverse transcription reaction at ratios of 1:100,000, 1:10,000, 1:1000, 1:100 (w/w) to sample mRNA, respectively. To sample differential expression patterns, control mRNAs (YCFR43, YCFR22, YCFR23, YCFR25, YCFR44, YCFR26) were diluted into reverse transcription reaction at ratios of 1:3, 3:1, 1:10, 10:1, 1:25, 25:1 (w/w) to sample mRNA. Reactions were incubated at 37° C. for 2 hours, treated with […] of 0.5M sodium hydroxide, and incubated for 20 minutes at 85° C. to the stop the reaction and degrade the RNA.
cDNAs were purified using two successive CHROMA SPIN 30 gel filtration spin columns (Clontech). Cy3- and Cy5-labeled reaction samples were combined as described below and ethanol precipitated using […] of 100% ethanol. The cDNAs were then dried to completion using a SpeedVAC system (Savant Instruments, Holbrook N.Y.) and resuspended in 14 μl 5× SSC, 0.2% SDS. […]

HT-29 cells [2] = settings: cultured HT-29 cells, microarray experiments and other methods; cited from earlier work

Nc1ncn([C@H]2C[C@H](O)[C@@H](CO)O2)c(=O)n1 [Aza, 5-aza-2-deoxycytidine]
growth of HT-29 cells in culture (HT-29 cells [1]): inhibits growth | differential expression, Clone ID 2416222, HCT116 t/Aza (5d) (HCT116 cells; SEQ ID NO:1 hypothetical protein): −1.72 | differential expression, Clone ID 4103545, HCT116 t/Aza (5d) (HCT116 cells; SEQ ID NO:2 Incyte Unique): −1.35 | differential expression, Clone ID 322569, HCT116 t/Aza (5d) (HCT116 cells; SEQ ID NO:3 interferon-inducible protein): −1.17 | differential expression, Clone ID 5322134, HCT116 t/Aza (5d) (HCT116 cells; SEQ ID NO:5 chromosome 6p21.3, HLA Class I region): −1.72 | differential expression, Clone ID 1698458, HCT116 t/Aza (5d) (HCT116 cells; SEQ ID NO:6 unnamed protein product): −1.32 | differential expression, Clone ID 1871523, HCT116 t/Aza (5d) (HCT116 cells; SEQ ID NO:7 KIAA1046 protein): −0.85 | differential expression, Clone ID 6024084, HCT116 t/Aza (5d) (HCT116 cells; SEQ ID NO:8 putative tumor antigen): −2.66 | differential expression, Clone ID 3810006, HCT116 t/Aza (5d) (HCT116 cells; SEQ ID NO:9 Incyte Unique): −0.85 | differential expression, Clone ID 4508879, HCT116 t/Aza (5d) (HCT116 cells; SEQ ID NO:10 Incyte Unique): −0.89 | differential expression, Clone ID 4225379, HCT116 t/Aza (5d) (HCT116 cells; SEQ ID NO:11 U 6 RNA): −0.89 | differential expression, Clone ID 3463713, HCT116 t/Aza (5d) (HCT116 cells; SEQ ID NO:12 cDNA clone ZD16H10): −1.46 | differential expression, Clone ID 2998017, HCT116 t/Aza (5d) (HCT116 cells; SEQ ID NO:13, 14 T-cell receptor gamma): −1.23 | differential expression, Clone ID 4318273, HCT116 t/Aza (5d) (HCT116 cells; SEQ ID NO:15 pTR5 repetitive sequence): −1.07 | differential expression, Clone ID 1649414, HCT116 t/Aza (5d) (HCT116 cells; SEQ ID NO:16 Hep27 protein): −1.00 | differential expression, Clone ID 1684742, HCT116 t/Aza (5d) (HCT116 cells; SEQ ID NO:18 cDNA FLJ20222): −0.89 | differential expression, Clone ID 2825816, HCT116 t/Aza (5d) (HCT116 cells; SEQ ID NO:19 KIAA0412): −0.89 | differential expression, Clone ID 2440943, HCT116 t/Aza (5d) (HCT116 cells; SEQ ID NO:21 Incyte Unique): −1.00 | differential expression, Clone ID 1294339, HCT116 t/Aza (5d) (HCT116 cells; SEQ ID NO:22 PDGF-B): −0.89 | differential expression, Clone ID 5104741, HCT116 t/Aza (5d) (HCT116 cells; SEQ ID NO:23 cDNA FLJ10570): −1.23 | differential expression, Clone ID 1855389, HCT116 t/Aza (5d) (HCT116 cells; SEQ ID NO:24 pTR7 repetitive sequence): −1.51 | differential expression, Clone ID 5207613, HCT116 t/Aza (5d) (HCT116 cells; SEQ ID NO:25 chromosome 21 segment HS21C049): −1.67 | differential expression, Clone ID 3207902, HCT116 t/Aza (5d) (HCT116 cells; SEQ ID NO:26 hypothetical protein): −0.89 | differential expression, Clone ID 4999769, HCT116 t/Aza (5d) (HCT116 cells; SEQ ID NO:27 ZNFpT17): −1.09 | differential expression, Clone ID 408886, HCT116 t/Aza (5d) (HCT116 cells; SEQ ID NO:28 transketolase): −2.32 | differential expression, Clone ID 4764233, HCT116 t/Aza (5d) (HCT116 cells; SEQ ID NO:30 GAGE-8): −1.79 | differential expression, Clone ID 2511379, HCT116 t/Aza (5d) (HCT116 cells; SEQ ID NO:31 GAGE-7B): −1.34 | differential expression, Clone ID 2471817, HCT116 t/Aza (5d) (HCT116 cells; SEQ ID NO:33 cDNA clone YU62C03): −0.89 | differential expression, Clone ID 3333736, HCT116 t/Aza (5d) (HCT116 cells; SEQ ID NO:34 MAGE-11 antigen): −1.38 | differential expression, Clone ID 1304365, HCT116 t/Aza (5d) (HCT116 cells; SEQ ID NO:35 GAGE-8): −1.78 | differential expression, Clone ID 2657056, HCT116 t/Aza (5d) (HCT116 cells; SEQ ID NO:37, 38 MAGE-4b antigen): −1.58 | differential expression, Clone ID 2507719, HCT116 t/Aza (5d) (HCT116 cells; SEQ ID NO:39 MAGE-9 antigen): −1.70 | differential expression, Clone ID 4688, HCT116 t/Aza (5d) (HCT116 cells; SEQ ID NO:41 MAGE-1): −1.14 | differential expression, Clone ID 2068708, HCT116 t/Aza (5d) (HCT116 cells; SEQ ID NO:42 HM74): −0.46 | differential expression, Clone ID 23770, HCT116 t/Aza (5d) (HCT116 cells; SEQ ID NO:43 1-8D): −0.72 | differential expression, Clone ID 1616783, HCT116 t/Aza (5d) (HCT116 cells; SEQ ID NO:45 Incyte Unique): −0.80 | differential expression, Clone ID 820942, HCT116 t/Aza (5d) (HCT116 cells; SEQ ID NO:46 cDNA FLJ20120): −0.26 | differential expression, Clone ID 891322, HCT116 t/Aza (5d) (HCT116 cells; SEQ ID NO:47 Incyte Unique): −0.58 | differential expression, Clone ID 2755836, HCT116 t/Aza (5d) (HCT116 cells; SEQ ID NO:48 U5 A RNA): −0.58 | differential expression, Clone ID 1227521, HCT116 t/Aza (5d) (HCT116 cells; SEQ ID NO:49 phospholipid scramblase 1): −0.58 | differential expression, Clone ID 2200842, HCT116 t/Aza (5d) (HCT116 cells; SEQ ID NO:50 retinoid inducible gene 1): 0.00 | differential expression, Clone ID 2238363, HCT116 t/Aza (5d) (HCT116 cells; SEQ ID NO:51 interferon induced): −0.24 | differential expression, Clone ID 1495382, HCT116 t/Aza (5d) (HCT116 cells; SEQ ID NO:53 TRAIL): −0.26 | differential expression, Clone ID 1998269, HCT116 t/Aza (5d) (HCT116 cells; SEQ ID NO:55 rhoB): −0.63 | differential expression, Clone ID 1919287, HCT116 t/Aza (5d) (HCT116 cells; SEQ ID NO:56 hepatitis C-associated microtubular aggregate): 0.00 | differential expression, Clone ID 2637446, HCT116 t/Aza (5d) (HCT116 cells; SEQ ID NO:57 HE4 protein): −0.29 | differential expression, Clone ID 1962141, HCT116 t/Aza (5d) (HCT116 cells; SEQ ID NO:58 Similar to keratin 7): −0.92 | differential expression, Clone ID 4933404, HCT116 t/Aza (5d) (HCT116 cells; SEQ ID NO:60 Incyte Unique): −2.08 | differential expression, Clone ID 2150288, HCT116 t/Aza (5d) (HCT116 cells; SEQ ID NO:61 Keratin 8): −0.92 | differential expression, Clone ID 2697455, HCT116 t/Aza (5d) (HCT116 cells; SEQ ID NO:61 Keratin 8): −1.14 | expression of genes related to interferon (IFN) signaling (HT-29 cells [2]): leads to specific expression of several genes related to interferon (IFN) signaling
